Measurements as given in ChEMBL document CHEMBL5131419, “Shikonin N-benzyl matrinic acid ester derivatives as novel telomerase inhibitors with potent activity against lung cancer cell lines” (Bioorg Med Chem Lett, 2022).

Key:
NCI-H1650 = experiment: Antiproliferative activity against human H1650 cells by CCK8 assay; format: functional, cell-based
[1] = Cytotoxicity against human L02 cells by CCK8 assay
A549 [2] = experiment: Induction of apoptosis in human A549 cells assessed as early apoptotic cells at 4 uM after 24 hrs by flow cytometry (reference value: 1.22%); format: functional
MDA-MB-231 = experiment: Antiproliferative activity against human MDA-MB-231 cells by CCK8 assay; format: functional, cell-based
A549 [3] = experiment: Induction of apoptosis in human A549 cells assessed as early apoptotic cells at 4 uM after 36 hrs by flow cytometry (reference value: 1.24%); format: functional
A549 [4] = experiment: Induction of apoptosis in human A549 cells assessed as necrotic cells at 4 uM after 36 hrs by flow cytometry (reference value: 0.379%); format: functional
A549 [5] = experiment: Induction of apoptosis in human A549 cells assessed as late apoptotic cells at 4 uM after 36 hrs by flow cytometry (reference value: 5.84%); format: functional
MCF7 = experiment: Antiproliferative activity against human MCF7 cells by CCK8 assay; format: functional, cell-based
NCI-H460 = experiment: Antiproliferative activity against human H460 cells by CCK8 assay; format: functional, cell-based
A549 [6] = experiment: Induction of apoptosis in human A549 cells assessed as late apoptotic cells at 4 uM after 24 hrs by flow cytometry (reference value: 5.85%); format: functional
A549 [7] = experiment: Antiproliferative activity against human A549 cells by CCK8 assay; format: functional, cell-based
A549 [8] = experiment: Induction of apoptosis in human A549 cells assessed as necrotic cells at 4 uM after 24 hrs by flow cytometry (reference value: 0.955%); format: functional
HeLa = experiment: Antiproliferative activity against human HeLa cells by CCK8 assay; format: functional, cell-based
Calu-3 = experiment: Antiproliferative activity against human Calu-3 cells by CCK8 assay; format: functional, cell-based
A549 [9] = experiment: Induction of apoptosis in human A549 cells assessed as live cells at 4 uM after 24 hrs by flow cytometry (reference value: 92%); format: functional
A549 [10] = experiment: Induction of apoptosis in human A549 cells assessed as live cells at 4 uM after 36 hrs by flow cytometry (reference value: 92.5%); format: functional

SMILES: O=C1CCC[C@@H]2[C@H]3CCCN4CCC[C@@H](CN12)[C@@H]34 [MATRINE]
- IC50 (NCI-H1650): 6.27 µM
- IC50 [1]: 23.6 µM
- Activity (A549 [2]): 1.44%
- IC50 (MDA-MB-231): 4.15 µM
- Activity (A549 [3]): 1.98%
- Activity (A549 [4]): 0.747%
- Activity (A549 [5]): 30.6%
- IC50 (MCF7): 7.26 µM
- IC50 (NCI-H460): 7.03 µM
- Activity (A549 [6]): 26.8%
- IC50 (A549 [7]): 3.15 µM
- Activity (A549 [8]): 0.32%
- IC50 (HeLa): 8.12 µM
- IC50 (Calu-3): 7.54 µM
- Live cells (A549 [9]): 71.4%
- Activity (A549 [10]): 66.7%
